The target of assay [1] is T1, r-Mal d 1.01 (recombinant Mal d 1.0108) (Malus domestica, UniProt Q9SYW3).
T1 construct: gene MALD1; 15N-labelled in M9 medium for HSQC NMR; one cysteine (Cys107)
T1 sequence (Q9SYW3 1-159): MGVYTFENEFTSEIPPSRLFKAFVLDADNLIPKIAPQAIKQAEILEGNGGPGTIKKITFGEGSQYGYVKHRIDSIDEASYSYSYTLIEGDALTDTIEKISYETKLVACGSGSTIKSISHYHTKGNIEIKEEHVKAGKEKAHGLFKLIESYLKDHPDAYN
The experiment in a line: 1H-15N-HSQC NMR chemical shift perturbation. Type of assay: binding. To be noted: 50 mM phosphate pH 7, 10% D2O, 25 °C; 100 μM 15N-protein, 0.1-2 mM ligand; no specific site, scattered over surface.

Assay [2] has as its target T1, r-Mal d 1.01 (recombinant Mal d 1.0108). The experiment in a line: isothermal titration calorimetry, independent model. Particulars: 0.1 M sodium phosphate pH 7, 25 °C; 0.2 mM protein, 4 mM ligand injected; stoichiometry fixed at n = 1; weak nonspecific surface binding; unreliable. Background: In ITC the heat of successive injections is recorded.
For assay [3] the target is unchanged. The experiment in a line: untargeted bottom-up LC-MS of tryptic peptides. To be noted: covalent; Michael addition at Cys107 (peptide LVACGSGSTIK) via o-quinone formed by autoxidation; excess ligand in water, 20 min, room temperature. Type of assay: binding.

These results are taken from article PMC11273618, “Multianalytical Approach to Understand Polyphenol-Mal d 1 Interactions to Predict Their Impact on the Allergenic Potential of Apples” (Journal of Agricultural and Food Chemistry, 2024).

With `O=C(/C=C/c1ccc(O)c(O)c1)O[C@@H]1C[C@](O)(C(=O)O)C[C@@H](O)[C@H]1O` [CA, chlorogenic acid], the “1H-15N-HSQC NMR chemical shift perturbation” value in assay [1] is on record as “CA showed by far the strongest impact on the protein surface”.
The KD is the equilibrium constant for the complex coming apart. As to `Oc1cc(O)c2c(c1)O[C@H](c1ccc(O)c(O)c1)[C@@H](O)C2` [CAT, (+)-catechin], the KD in assay [2] was found to be 500 ± 0 µM.
On to `Oc1cc(O)c2c(c1)O[C@H](c1ccc(O)c(O)c1)[C@H](O)C2` [EC, (−)-epicatechin], for which the “% modification of Cys107 peptide” value in assay [3] is on record as ~ 30%. Besides, the KD in assay [2] came out at 1400 µM.
For the compound `Oc1cc(O)c2c(c1)O[C@H](c1ccc(O)c(O)c1)[C@H](O)[C@H]2c1c(O)cc(O)c2c1O[C@H](c1ccc(O)c(O)c1)[C@@H](O)C2` [PC B1, procyanidin B1], the dissociation constant (KD) in assay [2] worked out at 1200 ± 200 µM.
Take `Oc1cc(O)c2c(c1)O[C@H](c1ccc(O)c(O)c1)[C@H](O)[C@H]2c1c(O)cc(O)c2c1O[C@H](c1ccc(O)c(O)c1)[C@H](O)C2` [PC B2, procyanidin B2]: the equilibrium dissociation constant (KD) in assay [2] was 600 ± 0 µM.
